In patent US6635641B2 (Agouron Pharmaceuticals, Inc., priority 2000, dated 2003) one finds Ki and inhibition data, which are given here for 32 compounds.

Counter-ions that a name gives are not always drawn.

One assay deals with T1, phosphorylated VEGF-R2Δ50 (FLVK-P) (Homo sapiens, UniProt P35968, DEL940-989/E990V).
T1 construct: VEGF-R2Δ50 contains residues 806-939 and 990-1171; made in house; host or cells: baculovirus/insect cells
T1 sequence (P35968 with tags, fused parts or gaps DEL940-989/E990V limits assumed): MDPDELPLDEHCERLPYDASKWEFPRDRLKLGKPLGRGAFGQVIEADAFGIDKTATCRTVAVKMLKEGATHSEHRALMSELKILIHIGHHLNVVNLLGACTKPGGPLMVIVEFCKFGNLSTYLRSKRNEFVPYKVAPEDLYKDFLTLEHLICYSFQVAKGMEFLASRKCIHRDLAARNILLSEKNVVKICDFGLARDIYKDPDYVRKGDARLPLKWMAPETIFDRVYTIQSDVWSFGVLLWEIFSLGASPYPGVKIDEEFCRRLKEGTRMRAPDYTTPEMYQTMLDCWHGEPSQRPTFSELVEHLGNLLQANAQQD
As to the kind of experiment: VEGF-R2 coupled spectrophotometric assay, phosphorylated construct (FLVK-P). It is filed as biochemical.
Settings: not given
From the text:
A construct (VEGF-R2Δ50) of the cytosolic domain of human vascular endothelial growth factor receptor 2 (VEGF-R2) lacking the 50 central residues of the 68 residues of the kinase insert domain was expressed in a baculovirus/insect cell system. Of the 1356 residues of full-length VEGF-R2, VEGF-R2Δ50 contains residues 806-939 and 990-1171, and also one point mutation (E990V) within the kinase insert domain relative to wild-type VEGF-R2. See commonly assigned, co-pending U.S. patent application Ser. No. 09/390,326, filed Sep. 7, 1999, incorporated by reference herein, for discussion of VEGF constructs and expression systems. Autophosphorylation of the purified construct was performed by incubation of the enzyme at a concentration of 4 μM in the presence of 3 mM ATP and 40 mM MgCl2 in 100 mM Hepes, pH 7.5, containing 5% glycerol and 5 mM DTT, at 4° C. for 2 h. […] See Parast et al., Biochemistry, 37, 16788-16801 (1998).
The production of ADP from ATP that accompanies phosphoryl transfer was coupled to oxidation of NADH using phosphoenolpyruvate (PEP) and a system having pyruvate kinase (PK) and lactic dehydrogenase (LDH). The oxidation of NADH was monitored by following the decrease of absorbance at 340 nm (e340=6.22 cm^−1 mM^−1) using a Beckman DU 650 spectrophotometer. Assay conditions for phosphorylated VEGF-R2Δ50 (indicated as FLVK-P in the tables below) were the following: 1 mM PEP; 250 μM NADH; 50 units of LDH/mL; 20 units of PK/mL; 5 mM DTT; 5.1 mM poly(E4Y1); 1 mM ATP; and 25 mM MgCl2 in 200 mM Hepes, pH 7.5. Assay conditions for unphosphorylated VEGF-R2Δ50 (indicated as FLVK in the tables) were the following: 1 mM PEP; 250 μM NADH; 50 units of LDH/mL; 20 units of PK/mL; 5 mM DTT; 20 mM poly(E4Y1); 3 mM ATP; and 60 mM MgCl2 and 2 mM MnCl2 in 200 mM Hepes, pH 7.5. Assays were initiated with 5 to 40 nM of enzyme. Ki values were determined by measuring enzyme activity in the presence of varying concentrations of test compounds. The data were analyzed using Enzyme Kinetic and Kaleidagraph software.
As usually defined, the Ki is the equilibrium dissociation constant of an inhibitor or competing ligand from its target. Low values mean tighter binding, high ones weaker binding. For `Cc1cc(NC(=O)c2cccc(CSc3nc(N)n[nH]3)c2)ccc1C(C)C` [Example A-4, N-(4-Isopropyl-3-methylphenyl)-3-[(5-amino-2H-[1,2,4]triazol-3-yl)sulfanylmethyl]benzamide], the inhibition constant Ki is 13 µM. That is a double-digit micromolar value.
`COc1ccc(NC(=O)c2cccc(CSc3ncnc4[nH]ncc34)c2)cn1` [Example B-2] registered a Ki of 1.82 µM. This Ki lies about 7.1-fold lower than the previous one.
Compound `Cc1cc(NC(=O)c2cccc(CSc3ncnc4[nH]ncc34)c2)no1` [Example B-4, N-(5-Methylisoxazol-3-yl)-3-[(1H-pyrazolo[3,4-d]pyrimidin-4-yl)sulfanylmethyl]benzamide] had a Ki of 35 µM.
In turn, `O=C(NCc1ccncc1)c1cccc(CSc2ncnc3[nH]ncc23)c1` [Example B-5, N-(Pyridin-4-yl)methyl-3-[(1H-pyrazolo[3,4-d]pyrimidin-4-yl)sulfanylmethyl]benzamide] showed an inhibition constant (Ki) of 11 µM.
Consider `COc1ccccc1CNC(=O)c1cccc(CSc2ncnc3[nH]ncc23)c1` [Example B-7, N-(2-Methoxybenzyl)-3-[(1H-pyrazolo[3,4-d]pyrimidin-4-yl)sulfanylmethyl]benzamide], for which the Ki was 3.31 µM.
`COc1ccccc1NC(=O)c1cccc(CSc2ncnc3[nH]ncc23)c1` [Example B-9, N-(2-Methoxyphenyl)-3-[(1H-pyrazolo[3,4-d]pyrimidin-4-yl)sulfanylmethyl]benzamide]: the Ki was found to be 17 µM.
As to `O=C(Nc1cccc(OC(F)(F)F)c1)c1cccc(CSc2ncnc3[nH]ncc23)c1` [Example B-20], the Ki stood at 0.026 µM.
In turn, `Cc1cc(C)cc(NC(=O)c2cccc(CSc3ncnc4[nH]ncc34)c2)c1` [Example B-21, 3-[(1H-Pyrazolo[3,4-d]pyrimidin-4-yl)sulfanylmethyl]-N(3,5-dimethylphenyl)-benzamide] came in with a Ki of 0.208 µM.
Still for that read-out and setting: to `O=C(Nc1cccc(S(=O)(=O)C(F)(F)F)c1)c1cccc(CSc2ncnc3[nH]ncc23)c1` [Example B-24, 3-[(1H-Pyrazolo[3,4-d]pyrimidin-4-yl)sulfanylmethyl]-N(3-trifluoromethylsulfonylphenyl)-benzamide] belongs 0.037 µM.
In turn, `Cc1ccc2cc(NC(=O)c3cccc(SCc4cccnc4)c3)ccc2n1` [Example D-3, N-(2-Methyl-quinolin-6-yl)-3-(pyridin-3-ylmethylsulfanyl)-benzamide dihydrochloride] showed a Ki of 0.133 µM. Compared with the last compound, the Ki is about 3.6-fold higher.
With `COc1cc(NC(=O)c2cccc(OCc3cncc4ccccc34)c2)cc(OC)c1OC` [Example K-2, 3-(Isoquinolin-4-yl)methoxy-N-(3,4,5-trimethoxyphenyl)benzamide hydrochloride], the affinity corresponds to a Ki of 0.138 µM.
`COc1cc(NC(=O)c2cccc(OCc3cccnc3)c2)cc(OC)c1OC` [Example K-5, 3-(Pyridin-3-yl)methoxy-N-(3,4,5-trimethoxyphenyl)benzamide] gave a Ki of 1.27 µM.
`O=C(Nc1ccc2ccccc2c1)c1cccc(OCc2cccnc2)c1` [Example K-6, N-(Naphthalen-2-yl)-3-(pyridin-3-yl)methoxybenzamide] had an inhibition constant (Ki) of 0.2 µM.
For `C=CCn1ccc2cc(NC(=O)c3cccc(OCc4cccnc4)c3)ccc21` [Example K-7, N-(1-Allyl-1H-indol-5-yl)-3-(pyridin-3-yl)methoxy-benzamide], the Ki stood at 0.122 µM.
`O=C(Nc1ccc2ncccc2c1)c1cccc(OCc2cccnc2)c1` [Example K-8, 3-(Pyridin-3-yl)methoxy-N-quinolin-6-yl-benzamide] returned a Ki of 0.707 µM.
`O=C(NOCc1ccccc1)c1cccc(OCc2cncc3ccccc23)c1` [Example R-7, N-Benzyloxy-3-(isoquinolin-4-ylmethoxy)-benzamide] returned a Ki of 0.325 µM.
Take `Cc1cc(NC(=O)c2cc(CCc3cncc4ccccc34)ccc2F)ccc1C(C)C` [Example T-1, 2-Fluoro-N-(4-isopropyl-3-methyl-phenyl)-5-(2-isoquinolin-4-yl-ethyl)-benzamide]: the Ki came to 0.0136 µM.
Regarding `Cc1ccc2cc(NC(=O)c3cccc(CCc4cccnc4)c3)ccc2n1` [Example U-1, N-(2-Methyl-quinolin-6-yl)-3-(2-pyridin-3-yl-ethyl)-benzamide hydrochloride], the affinity corresponds to a Ki of 0.068 µM. Against the preceding compound, the Ki is about 5-fold higher.

Staying with this assay, now noted: @ 50 nM; read-out: FLVK-P percent inhibition.
What is called inhibition is the relative decrease from the control value, in per cent. For `C=CCc1cc(NC(=O)c2cccc(OCc3cncc4ccccc34)c2)cc(CC=C)c1C` [Example R-1, N-(3,5-Diallyl-4-methyl-phenyl)-3-(isoquinolin-4-ylmethoxy)-benzamide], the inhibition at 0.05 µM turned out to be 49%.
The same measure, in the same setting: the value for `Cc1cc(C)nc(NC(=O)c2cccc(CCc3cncc4ccccc34)c2)c1` [Example S-6, N-(4,6-Dimethyl-pyridin-2-yl)-3-(2-isoquinolin-4-yl-ethyl)-benzamide] was 6%.

Still in this assay, the particulars now being: @ 1 μM; read-out: FLVK-P percent inhibition.
For the compound `CC(C)c1ccc(NC(=O)c2cccc(CSc3ncnc4[nH]ncc34)c2)cc1` [Example B-19, 3-[(1H-Pyrazolo[3,4-d]pyrimidin-4-yl)sulfanylmethyl]-N(4-isopropylphenyl)-benzamide], the inhibition at 1 µM amounted to 42%.
In the case of `CC(O)c1cccc(NC(=O)c2cccc(CSc3ncnc4[nH]ncc34)c2)c1` (centres unmarked) [Example B-22], the inhibition at 1 µM turned out to be 32%.
With `CN(C)c1ccc(NC(=O)c2cccc(CSc3ncnc4[nH]ncc34)c2)cc1` [Example B-23, 3-[(1H-Pyrazolo[3,4-d]pyrimidin-4-yl)sulfanylmethyl]-N(4-dimethylaminophenyl)-benzamide], the inhibition at 1 µM was found to be 17%.
Still for that read-out and setting: to `CN(C)c1cccc(NC(=O)c2cccc(CSc3ncnc4[nH]ncc34)c2)c1` [Example B-25, 3-[(1H-Pyrazolo[3,4-d]pyrimidin-4-yl)sulfanylmethyl]-N(3-dimethylaminophenyl)-benzamide] belongs 26%; to `COc1cc(/C=C/c2cc(CNc3cccc(C(=O)Nc4ccccc4)c3)n[nH]2)ccc1O` [Example I-2, 3-[({5-[(E)-2-(4-hydroxy-3-methoxyphenyl)ethenyl]-1H-pyrazol-3-yl}methyl)amino]-N-phenylbenzamide], 16%; to `Cc1cc(C)c2ccc(NC(=O)c3cccc(OCc4cncc5ccccc45)c3)nc2n1` [Example R-9, N-(5,7-dimethyl[1,8]naphthydrin-2-yl)-3-(isoquinolin-4-ylmethoxy)-benzamide], 9%.
Take `O=C(Nc1ccccc1)c1cccc(CCc2cncc3ccccc23)c1` [Example S-1, 3-(2-Isoquinolin-4-yl-ethyl)-N-phenyl-benzamide]: the inhibition at 1 µM worked out at 2%.
For `CC1CC(NC(=O)c2cccc(CCc3cncc4ccccc34)c2)CC(C)(C)C1` (centres unmarked) [Example S-2, 3-(2-Isoquinolin-4-yl-ethyl)-N-(3,3,5-trimethyl-cyclohexyl)-benzamide], the inhibition at 1 µM was determined as 28%.
In the case of `COc1cc(C(=O)Nc2cccc(CSc3ncnc4[nH]ncc34)c2)ccc1O` [Example V-3, N-{3-[(1H-pyrazolo[3,4-d]-pyrimidin-4-yl)sulfanylmethyl]phenyl}-(4-hydroxy-3-methoxy)benzamide], the inhibition at 1 µM was found to be 42%.

The assay is the same for the next values; noted with them: @ 5 μM; read-out: FLVK-P percent inhibition.
Regarding `O=C(NNc1ccc(C(F)(F)F)cc1)c1cccc(OCc2cncc3ccccc23)c1` [Example R-6, 3-(Isoquinolin-4-ylmethoxy)-benzoic acid N′-(4-trifluoromethyl-phenyl)hydrazide], the inhibition at 5 µM was 16%.
The same measure, in the same setting: to `O=C(NNc1ccccc1)c1cccc(OCc2cncc3ccccc23)c1` [Example R-8, 3-(Isoquinolin-4-ylmethoxy)-benzoic acid N′-phenyl-hydrazide] belongs 4%.

The same assay, now with this note: μM.
`COc1cc(NC(=O)c2cccc(CSc3nc(N)n[nH]3)c2)cc(OC)c1OC` [Example A-2, N-(3,4,5-Trimethoxyphenyl)-3-[(5-amino-2H-[1,2,4]triazol-3-yl)sulfanylmethy]benzamide] registered an inhibitory constant (Ki) of 100 µM.
